Results reported in patent US20250263686A1, “METHODS OF INHIBITING NUCLEASE ACTIVITY, METHODS OF ISOLATING NUCLEI FROM CELLS, AND METHODS FOR EXTENDING DNA” (NATIONAL CHENG KUNG UNIVERSITY, priority 2024, published 2025).

What was measured:
[1] = target: T1, TdT (Bos taurus, UniProt P06526); assay: TdT tailing of ssDNA oligo, electrophoresis and silver staining; type: biochemical; conditions: dATP 2 mM, FIG. 1
T1 construct: purchased
Procedure: 0.5 pmole of an ssDNA oligo (SEQ ID NO: 1) was incubated in 10 μL volumes of various compositions plus dATP (2 mM) and commercial TdT (0.25 μL) at 37° C., 45° C., 55° C., 65° C., 75° C. for 30, 5, 5, 5, 20 minutes, respectively. All the reaction was used for electrophoresis (FIG. 1).

[2] = target: T1, TdT; assay: TdT tailing of 3' recessed-end dsDNA substrate, electrophoresis and silver staining; type: biochemical; conditions: 37° C. for 60 minutes; for TdT tailing of 3' recessed-end substrate, alternative ingredients: compared with dATP and Co2+ buffer, FIG. 3
Procedure: 3′ recessed dsDNA was prepared by annealing 25 μM each of SEQ ID NO: 2 and SEQ ID NO: 3 in Tris-HCl pH 8 (25 mM), NaCl (12.5 mM), and EDTA (0.25 mM). 2.5 pmole of the annealed substrate was incubated in 20 μL of reaction mixtures containing PMSF (0.5 mM), dATP (2 mM), TRITON® X-100 (0.1%), Tris-acetate pH 7.9 (20 mM), and either Mg^2+ or Co^2+ in chloride salt form (M^2+, 0.75 mM) as tailing cofactors, with (+) or without (−) of TdT (0.25 μL) at 37° C. for 60 minutes followed by 75° C. for 20 minutes. Subsequently, all the reactions were loaded for electrophoresis.
5 pmole of the 3′ recessed-end substrate as in Example 2 was incubated in 10 μL of reaction containing HEPES (H) or Tris-acetate (T) pH 7.9 (20 mM), dATP (dA) or dGTP (dG) (2 mM), CoCl2 (Co) or MnCl2 (Mn) (0.75 or 2 mM), DTT (0 or 0.2 mM), and TdT (0 or 0.25 μL) at 37° C. for 60 minutes followed by 75° C. for 20 minutes before loading half of the samples for electrophoresis (FIG. 3).

[3] = target: micrococcal nuclease (Staphylococcus aureus, UniProt P00644); assay: RNaseAlert fluorescent assay with micrococcal nuclease; type: biochemical; conditions: micrococcal nuclease 200 gel units, 10 minutes at ambient temperature, FIG. 9
Procedure: (§1) The RNaseAlert™ oligo (50 nM) was prepared in pancreatic lysis buffer with a final volume of 25 μL, containing the specified additives (pancreatic lysate, Cu^2+-citric acid, or various nucleases) in FIG. 9. After incubating at ambient temperature for 10 minutes, the reactions were diluted to 150 μL with the same buffer, excluding substrates and lysate, for fluorescence quantification in triplicate of 50 μL.

[4] = test system: pancreatic nuclease; assay: RT-qPCR of nuclear mRNA (GAPDH, PSMB4) in HEK293 nuclei exposed to pancreatic lysate; type: biochemical, murine; conditions: 10 mM complex, pH 4.5 and 7.2, HEK293 nuclei, FIG. 12
Procedure: To mimic nuclear extraction by direct lysis of challenging organs, HEK293 cells were lysed in the presence of nuclease-rich pancreatic lysate, with or without the Cu^2+-chelator complex: Thirty μL of pancreatic lysis buffer containing 50 mM HEPES at pH 4.5 or 7.2, 1× Halt proteinase inhibitor, 2 μL of pancreatic lysate, and either 0 mM (control) or 10 mM of Cu^2+-citric acid complex from 250 mM stock solutions (at pH 4.5 and 7.2, respectively) were prepared on ice. 20,000 HEK293T cells in 2 μL of PBS were added to the lysis buffer, and the nuclei were released by rotating the cells in the fridge for 15 minutes. The nuclear pellets were obtained by centrifugation in a swing-bucket rotor at 1,000 g for 1 minute, washed twice with the same buffers excluding HALT, with the detergent in the wash buffer removed and replaced with 0.05% PVA. The washed nuclei were lysed with 15 μL of lysis buffer containing 0.2% TX-100 and […] proteinase K by vortexing at 1,200 rpm for 30 minutes at 37° C. The lysate was divided equally into 20 μL RT reactions, each containing RNA lysates, 0.2 μL of PMSF (50 mM in DMSO), 1× RT buffer (Tris-HCl pH 8.3, 50 mM; KCl, 75 mM; MgCl2, 3 mM; DTT, 5 mM), dNTPs (final concentration 0.5 mM each), homemade rat RNase inhibitor (100 ng), PVA (0.05%), T23VN (1 μM), and either 0 (for genomic DNA control) or 100 ng of homemade reverse transcriptase. […]

[5] = Precipitation by optical density at 600 nm, with or without bovine serum albumin; type: physicochemical; conditions: for protein aggregation / precipitation with bovine serum albumin (visual and OD600): BSA 10 g/L, pH 4.5, 5.5 and 7.2, FIG. 6
Procedure: A total of 180 μL of reactions per well were prepared at ambient temperature in a 96-well plate. These reactions contained various buffers (none or 100 mM) at specified pH levels, Cu^2+ salts in either sulfate (no pH adjustment) or citrate form (at pH 4.5 or 7.2, as specified) at the indicated concentrations, and bovine serum albumin (10 g/L final concentration) in FIG. 6. The reactions were prepared in triplicate, photographed directly (FIG. 6, lower), and measured for optical density at 600 nm (FIG. 6, upper) to indicate precipitation.

[6] = target: benzonase (Serratia marcescens, UniProt P13717); assay: RNaseAlert fluorescent assay with benzonase; type: biochemical; conditions: benzonase 20 units, 10 minutes at ambient temperature, FIG. 9
Chain of benzonase (P13717 22-266): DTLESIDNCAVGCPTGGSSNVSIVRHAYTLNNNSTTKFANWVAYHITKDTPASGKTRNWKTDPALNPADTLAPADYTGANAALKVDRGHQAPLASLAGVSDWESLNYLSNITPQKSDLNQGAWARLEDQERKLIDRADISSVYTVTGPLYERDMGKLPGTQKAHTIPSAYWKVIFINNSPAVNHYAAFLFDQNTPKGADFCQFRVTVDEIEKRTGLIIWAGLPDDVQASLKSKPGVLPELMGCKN
Procedure: as §1

[7] = test system: pancreatic nucleases; assay: RNaseAlert fluorescent assay of nuclease activity in crude pancreatic lysate; type: biochemical, murine; conditions: for inhibition of nuclease activity by Cu2+ in the presence of chelators: 2 mM CuSO4 plus 2 mM chelator, FIG. 10
Procedure: The crude pancreatic lysate was prepared by lyzing 10 mg of murine pancreas in 400 μL of lysis buffer (HEPES pH 7.2 20 mM, NaCl 146 mM, CaCl2 1 mM, MgCl2 21 mM, TWEEN® 20 0.1%, NP-40 0.1%, and digitonin 0.01%). The lysis was performed by bead beating (10 seconds, 4500 rpm) in 2 ml plastic tubes containing 6 glass beads of 2.5-mm diameter. The lysate was subjected to centrifugation at 17,000 RCF for 1 minute before the cleared nuclease-laden supernatant was kept for the assays.
To detect the nuclease activity, an RNaseAlert™ oligo made of chimeric DNA-RNA-DNA with a green fluorescence molecule on one end and a quencher on the other (50 nM) was used in 25 μL final reaction volume. The reactions were conducted in the pancreatic lysis buffer with a final volume of 25 μL, containing the specified additives (pancreatic lyate, CuSO4, or ZnSO4) in FIG. 5. After incubating at ambient temperature for 30 minutes, the reactions were diluted with 150 μL of the same buffer, excluding substrates and the lysate. Fluorescence detection was performed in triplicate, with excitation at 490 nm and emission at 520 nm.
(§2) The RNaseAlert™ oligo (50 nM) was prepared in pancreatic lysis buffer with a final volume of 25 μL, containing the specified additives (pancreatic lysate, CuSO4, or Cu^2+-citric acid at various concentrations) in FIG. 7. After incubating at ambient temperature for 30 minutes, the reactions were diluted to 150 μL with the same buffer, excluding substrates and lysate, for fluorescence quantification in triplicate of 50 μL.
as §2, with “lysis buffer, either HEPES-SO4 at pH 4.5 or HEPES at pH 7.2,” for “lysis buffer”, “lysate, Cu^2+,” for “lysate, CuSO4,”, “or chelators) and pH levels (pH 4.5 or 7.2)” for “or Cu^2+-citric acid at various concentrations)”, “FIG. 8.” for “FIG. 7.”
The RNaseAlert™ oligo (50 nM) was prepared in the pancreatic lysis buffer to a final volume of 25 μL, containing the specified additives (pancreatic lysate, 2 mM CuSO4, or 2 mM of various chelators), as shown in FIG. 10. After incubating at ambient temperature for 30 minutes, the reactions were diluted to 150 μL with the same buffer, excluding substrates and lysate, for fluorescence quantification in triplicate of 50 μL.
The RNaseAlert™ oligo (50 nM) was prepared in either the pancreatic lysis buffer (Buffer P) or a low-pH buffer (Buffer C, composed of 25 mM citrate at pH 3 and 250 mM sucrose) to a final volume of 25 μL. The preparation contained the specified additives (pancreatic lysate, 1% DEPC, and Cu^2+-citric acid at specified concentrations) and is depicted in FIG. 11. After incubating at ambient temperature for 30 minutes, the reactions were diluted to 150 μL with the same buffer, excluding substrates and lysate, for fluorescence quantification in triplicate of 50 μL.

[8] = target: T2, RNase A (Bos taurus, UniProt P61823); assay: RNaseAlert fluorescent assay with RNase A; type: biochemical; conditions: RNase A 50 ng, 10 minutes at ambient temperature, FIG. 9
T2 sequence (P61823 27-150): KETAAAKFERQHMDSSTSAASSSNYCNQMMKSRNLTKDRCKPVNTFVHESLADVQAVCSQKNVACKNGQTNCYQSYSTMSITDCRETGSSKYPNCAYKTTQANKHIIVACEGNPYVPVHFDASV
Procedure: as §1

T1 sequence (P06526 whole entry): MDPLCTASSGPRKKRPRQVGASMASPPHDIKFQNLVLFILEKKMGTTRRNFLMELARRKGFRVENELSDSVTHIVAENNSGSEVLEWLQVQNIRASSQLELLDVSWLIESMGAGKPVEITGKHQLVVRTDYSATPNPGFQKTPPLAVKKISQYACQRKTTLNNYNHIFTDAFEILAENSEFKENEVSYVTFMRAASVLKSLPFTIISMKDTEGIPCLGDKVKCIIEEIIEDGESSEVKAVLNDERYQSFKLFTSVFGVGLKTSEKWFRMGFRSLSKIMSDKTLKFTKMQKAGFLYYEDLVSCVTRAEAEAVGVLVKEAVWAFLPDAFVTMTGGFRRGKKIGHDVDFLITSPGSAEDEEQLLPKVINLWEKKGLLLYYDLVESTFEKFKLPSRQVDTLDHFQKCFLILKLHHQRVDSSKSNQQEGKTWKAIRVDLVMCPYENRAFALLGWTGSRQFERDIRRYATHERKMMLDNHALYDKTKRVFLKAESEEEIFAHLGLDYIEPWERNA

## CC(=O)[O-].[K+] [K^+, potassium acetate]
[1]
  TdT poly(dA) tailing of ssDNA substrate: detrimental to tailing

## Nc1nc2c(ncn2[C@H]2C[C@H](O)[C@@H](COP(=O)(O)OP(=O)(O)OP(=O)(O)O)O2)c(=O)[nH]1 [dGTP]
[2]
  TdT tailing of 3' recessed-end substrate, alternative ingredients: detrimental

## CC(=O)[O-].CC(=O)[O-].[Mg+2] [Mg^2+, magnesium acetate]
[1]
  TdT poly(dA) tailing of ssDNA substrate: yielded shorter tails

## O=C(O)CC(O)(CC(=O)O)C(=O)O.[Cu].[Cu] [Cu^2+-citric acid complex, dicopper; 2-hydroxypropane-1,2,3-tricarboxylic acid]
[3]
  blocking of micrococcal nuclease activity: capable of blocking the activities
[4]
  protection of nuclear RNA from degradation by pancreatic nuclease: necessary to protect and retain nuclear RNA from complete degradation
[5]
  protein aggregation / precipitation with bovine serum albumin (visual and OD600): resolved this issue at all pH values tested
[6]
  blocking of benzonase activity: capable of blocking the activities
[7]; 30 minutes
  inhibition of nuclease activity by Cu2+ in the presence of chelators: still inhibited nuclease activity
[7]; 10 mM complex, 30 minutes, FIG. 11
  RNase inhibition compared with low-pH buffer and DEPC: comparable RNase inhibition to the low-pH buffer
[7]; pH 4.5 and pH 7.2, FIG. 8
  nuclease-blocking activity at acidic and neutral pH: active at both acidic and neutral pH
[7]; various concentrations, 30 minutes at ambient temperature, FIG. 7
  blocking of pancreatic nuclease activity, chelated versus unchelated Cu2+: still capable of blocking pancreatic nuclease activity in a dose-dependent manner, similar or even more potent to the unchelated form
[8]
  blocking of RNase A activity: capable of blocking the activities

## [Cl][Co][Cl] [Co^2+, cobalt chloride]
[2]; M2+ 0.75 mM, dATP 2 mM, FIG. 2
  TdT tailing of 3' recessed-end substrate, Co2+ versus Mg2+: nearly complete upshift of the substrate
[1]
  TdT poly(dA) tailing of ssDNA substrate: could replace Mg^2+ for tailing the ssDNA

## O=C(O)CN(CC(=O)O)CC(=O)O.[Cu] [Cu^2+ with nitrilotriacetic acid (NTA), copper; 2-[bis(carboxylatomethyl)amino]acetate;hydron]
[7]; 30 minutes
  inhibition of nuclease activity by Cu2+ in the presence of chelators: still inhibited nuclease activity

## O[C@H](CS)[C@H](O)CS (racemic) [DTT, dithiothreitol]
[2]
  TdT tailing of 3' recessed-end substrate, alternative ingredients: does not affect the results

## [Cl][Mn][Cl] [Mn^2+, MnCl2]
[2]
  TdT tailing of 3' recessed-end substrate, alternative ingredients: not to improve

## O=S(=O)([O-])[O-].[Cu+2] [Cu^2+, CuSO4]
[5]
  protein aggregation / precipitation with bovine serum albumin (visual and OD600): severe protein aggregation at pH above 5.5
[5]; neutral pH, no protein, concentrations as low as 1 mM, FIG. 6
  solubility in water (precipitation, OD600): only minimally soluble
[7]; CuSO4 in pancreatic lysis buffer pH 7.2, 30 minutes at ambient temperature, FIG. 5
  nuclease activity in pancreatic lysate: effectively diminished the nuclease activity
